The record followed here is patent US20070082858A1, “Methods and compositions for the prevention of toxic side effects of aminoglycoside medications” (priority 2004, published 2007).

In data set [1] the test system is MDCK cells. As to the kind of experiment: GTTR uptake, distribution and saturability in MDCK cells (2 hours). The class given is cell-based, canine. The protocol:
MDCK cells were treated with 1 μg/ml purified GTTR for […] in complete medium at 37° C., then washed 3× with complete medium.
(§1) Both OK and MDCK cells were used in these studies. Both cell lines were treated with GTTR at 1 μg/ml in complete culture medium for two hours at either 37° C. or over ice. These cells were also treated with a dose range of 0 to 4000 μg/ml of unlabeled GT. Cells were washed and imaged live, then fixed with FATX, and washed again with buffer prior to re-imaging (as in FIG. 6, A3). […] Thus, cytoplasmic, but not endosomal, uptake of GTTR was saturable.
(§2) GTTR treatment: Subconfluent MDCK or OK cells were treated with 1 μg/mL of GTTR, in complete medium, for 2 hours at 37° C. or on ice. (The amount of GTTR is expressed as the weight of the gentamicin moiety within the conjugate.) In competition experiments, MDCK cells were simultaneously treated with unlabeled gentamicin (up to 4 mg/mL) for 2 hours.
Fixation, delipidation, and washing: After treatment, cells were washed three times with complete medium, and then immediately imaged live (see below; FIG. 27A), or fixed. […] Alternatively, cells were fixed in 4% formaldehyde alone (FA), washed and imaged (FIG. 27C), prior to delipidated with 0.5% Triton X-100 in PBS, washed thoroughly, and imaged again (FIG. 27D). […]

Data set [2] has as its system MDCK kidney cell line. As to the kind of experiment: Fluorescent microplate assay quantifying GTTR uptake. The class given is cell-based, canine. The note with it: 37° C. for two hours or room temperature for ten minutes. The source says:
A fluorescent microplate assay was developed using the MDCK kidney cell line to quantify the modulation of GTTR uptake by agonists/antagonists of the TRVP1 channel (pH, Ca^2+, RTX, and iodo-RTX).

The test system of data set [3] is OK cells. Description: GTTR uptake, saturability, time and temperature in OK cells. Format: cell-based, opossum. The method, then: as §1, §2
Fixation, delipidation, and washing: After treatment, cells were washed three times with complete medium, and then immediately imaged live (see below; FIG. 27A), or fixed. […] Alternatively, cells were fixed in 4% formaldehyde alone (FA), washed and imaged (FIG. 27C), prior to delipidated with 0.5% Triton X-100 in PBS, washed thoroughly, and imaged again (FIG. 27D). Control cells were incubated with hydrolyzed TR (at the same concentration as the TR moiety in the GTTR experiments) and then imaged live, or fixed, delipidated, washed and then imaged.
Both OK and MDCK cells were treated with GTTR at 1 μg/mL in complete culture medium for 2 hours at either 37° C. or over ice. These cells were also treated with a dose range of 0 to 4000 μg/mL of unlabeled GT. Cells were washed and imaged live (as in FIG. 27A), then fixed with FATX, and washed again with PBS prior to re-imaging (as in FIG. 27B). […]
OK cells were treated with 1 μg/mL of GTTR in complete culture medium, at 37° C. or on ice, for increasing time periods. […] (Note that live images were acquired without washing out GTTR from the extracellular medium, so fluorescence is visible outside the cells.) No endosomes were observed on OK cells treated on ice for 2 hours (FIG. 28, B1 inset). […]

The subject of data set [4] is bullfrog saccular explants. Description: GTTR labeling of bullfrog saccular explants in vitro (specificity, Example 6). Format: cell-based, Rana catesbeiana. The settings on record: 300 μg/ml GTTR plus 40-fold excess unconjugated GT (12 mg/ml), 30 minutes. The method, then: Gentamicin sulfate (Sigma; 50 mg/ml in K2CO3, pH 9) and succinimidyl esters of Texas Red (Molecular Probes; 2 mg/ml in dimethyl formamide) were agitated together overnight to produce a gentamicin-Texas red conjugate (GTTR). Typically, 4.4 ml of 50 mg/ml (final volume) gentamicin sulfate (GT) was mixed with 0.6 ml of 2 mg/ml Texas Red esters (TR) to produce an approximately 300:1 molar ratio of GT:GTTR. A high ratio of free gentamicin to TR esters ensures a minimum of unbound TR molecules, and a binding ratio of 1 TR molecule to 1 GT molecule (Sandoval et al. 1998). Gentamicin sulfate has three isoforms with molecular weights of […], (C2) 463.5, and (C1a) 477.6. Texas Red succinimidyl esters have a molecular weight of 817. […]
For confocal microscopy, excised saccular explants were individually pre-loaded (for 40 minutes) with 50 μM MitoTracker, 50 nM Lysotracker Green, 1 μM NBD-ceramide and 1 μM ERtracker (Molecular Probes) in Wolfe-Quimby amphibian culture media to label lysosomes, Golgi bodies and endoplasmic reticulum, respectively, prior to incubation with 300 μg/ml GT/GTTR for 2 hours. […] For immunocytochemistry of gentamicin, explants were incubated with 300 μg/ml unconjugated gentamicin for 30 minutes or 2 hours, fixed, ice-cold acetone-permeabilized, and processed for indirect fluorescence immunocytochemistry. […]

Data set [5] has as its system MDCK cells. As to the kind of experiment: Gentamicin immunolabeling of MDCK cells incubated with unlabeled gentamicin and La^+++. The note with it: 0.05, 0.5 and 5 mM La^+++, unlabeled gentamicin 30 seconds. The class given is cell-based, canine. The protocol: […] Cells were rinsed twice with PBS, fixed with 4% FA, then permeabilized with ice-cold methanol for 5 minutes, and rinsed 3 times with PBS, as described previously (Steyger et al., 2003). Cells were immunoblocked in 10% goat serum in PBS for 30 minutes, and then incubated with 50 μg/mL rabbit anti-gentamicin IgG (American Quaalex, San Clemente, Calif.) for 1 hour. After washing with 1% goat serum in PBS, cells were further incubated with 20 μg/mL Alexa-488-conjugated goat-anti-rabbit IgG antisera (Molecular Probes, Eugene, Oreg.) for 45 minutes, washed, post-fixed with 4% FA for 15 minutes, and washed again. For immunocytochemical controls, the primary IgG were omitted, or adsorbed with excess gentamicin (3 mg/mL) for 30 minutes prior to addition to cells. All wells were imaged using confocal microscopy.

The test system of data set [6] is MDCK cells. As to the kind of experiment: GTTR uptake into MDCK cells under TRPV1 agonists/antagonists, cation channel blockers, cations and pH (30-60 seconds, 20° C., FATX fixation, confocal imaging). The note with it: 0.5 or 5 mM La^+++ in HBSS pH 7.3, 30 seconds. The source says:
MDCK cells were used as a model system to test regulation of GTTR uptake by conditions known to produce or modify a cation current through the TRPV1 channel. Conditions tested were varying extracellular calcium concentrations, pH, specific agonists, specific antagonists, and the non-specific cation channel blocker Ruthenium Red. In addition, we pre-mixed PIP2 with GTTR to determine whether that anionic phospholipid, known to bind gentamicin, would alter GTTR uptake. All these assays were done at room temperature (20° C.), for 30 or 60 seconds, and using doses of GTTR of 5 to 10 μg/ml, which are far below the typical therapeutic level of <300 μg/ml. Buffers used for treatment were as described for each experiment. Cells were quickly washed to replace culture medium with treatment buffer, treated as indicated, washed again after treatment, fixed immediately with 4% formaldehyde and 0.5% Triton X-100 (FATX), and washed prior to imaging.
Methods: Cells were seeded into 8-well coverglass chambers at 3000 cells/well and grown for 5 days.
Cells were washed three times with the buffer to be used in the particular experiment, treated with GTTR and experimental variable for 30 or 60 seconds at 20° C., precluding endocytosis. Following treatment, cells were rinsed three times with buffer, then fixed and delipidated with 4% formaldehyde plus 0.5% Triton X-100 (FATX) for 45 minutes. Following fixation, cells were rinsed with PBS (Invitrogen, CA) for at least 4-6 times, or until foaming in the suction pipette ceased. In contrast to previous experiments, no FBS was present in the treatment media, allowing for more rapid uptake of the antibiotic-based GTTR.
MDCK cells were washed with Hank's buffered salt solution (HBSS; Invitrogen, CA), then placed into buffers of varying potassium concentrations. HBSS was mixed with equi-osmolar KCl/HBSS to produce the required K^+ concentrations. Cells were treated with 1 μg/mL GTTR for 1 minute, then washed and fixed as described above.
Cells were washed with PBS (Invitrogen, CA), then placed into buffers containing varying concentrations of calcium, obtained by mixing HBSS with equimolar CaCl2, each at pH 7.3. Cells were treated with 5 μg/mL of GTTR for 30 seconds, then washed and fixed as above.
Cells were washed with saline, then treated with 5 μg/mL of GTTR in saline buffers of varying pH for 30 seconds, then washed and fixed as above. Sodium hydroxide and hydrochloric acid were used to alter pH. These experiments were performed in three different saline buffers: (i) PBS (no calcium), (ii) a mixture of […] for a final calcium concentration of 0.32 mM, and (iii) a mixture of three parts PBS to one part HBSS for a final calcium concentration of 0.97 mM.
Cells were washed three times with Ca^++-free saline (0.9% NaCl), then treated with 5 μg/mL GTTR and one of the following for 30 seconds: TRPV1 agonists (resiniferatoxin [RTX]; or anandamide [AND]; Alexis Biochemicals, San Diego, Calif.); or antagonists (iodo-RTX, or SB 366791; Tocris, Ellisville, Mo.). Cells were then washed in saline and fixed as above.
Cells were washed three times with Ca^++-free 0.9% NaCl, then treated with 5 μg/mL GTTR and one of the following for 30 seconds: 100 μM Ruthenium Red, 100 μM Ruthenium Red plus one of the TRPV1 agonists or antagonists described above; or lanthanum (La^+++) at 0.5 or 5 mM.

On to gentamicin [unlabeled GT], for which the “cytoplasmic and nuclear GTTR” value in data set [1] (1 μg/ml GTTR 2 hours, 37° C. or ice, unlabeled GT 0 to 4000 μg/ml) was “serially reduced the amount of GTTR”; in data set [3] (OK cells, 1 μg/ml GTTR 2 hours, 37° C. or ice, unlabeled GT 0 to 4000 μg/ml), “serially reduced the amount of GTTR”. For the same compound, the cell morphology entry in data set [1] (4 mg/mL gentamicin, 2 hours) is “flattening of cells”; in data set [3] (OK cells, 4 mg/mL gentamicin, 2 hours), “flattening of cells”. In addition, the “GTTR uptake (quantitative microplate fluorescence)” value in data set [2] is on record as “reduced GTTR uptake”. The “endosomal (vesicular) accumulation of GTTR” value in data set [3] (live cells at 37° C., highest dose of unlabeled GT (4 mg/ml)) is “not visibly altered”. Also, the “GTTR fluorescence in saccular explants” value in data set [4] is listed as “reduced fluorescence in the sensory epithelium”.

Consider `[La+3]` [La^+++, Lanthanum], for which the “intensity of gentamicin immunofluorescence (unconjugated gentamicin uptake)” value in data set [5] is “serially decreased”. Also, the GTTR uptake entry in data set [6] is on record as “serially decreased”.
